Data: patent publication US8058284B2, “[4-(6-halo-7-substituted-2,4-dioxo-1,4-dihydro-2H-quinazolin-3-yl)-phenyl]-5-chloro-thiophen-2-yl-sulfonylureas and forms and methods related thereto” (Portola Pharmaceuticals, Inc., priority 2005, dated 2011)
Where two headings read alike, the source gives them in different places.

Experiments:
[1] = molecular target: T1, P2Y12 receptor on platelets (Homo sapiens, UniProt Q9H244); test: platelet ADP receptor binding assay (ARB): inhibition of [3H]2-MeS-ADP binding to platelets; conditions: apyrase-washed human platelets
T1 construct: endogenous in cells; host or cells: human platelets, apyrase-washed: outdated from hospital blood banks, or fresh
Method: 1. The Ability of Candidate Molecules to Inhibit the Binding of [3H]2-MeS-ADP to the P2Y12 Receptor on Platelets was Determined Using a Radioligand Binding Assay.
Utilizing this assay the potency of inhibition of such compounds with respect to [^3H]2-MeS-ADP binding to whole platelets is determined. Under the conditions described in II (3) below, the binding of [^3H]2-MeS-ADP is solely due to the interaction of this ligand with the P2Y12 receptor, in that all the specific binding measured in this assay is compatible with a P2Y12 antagonist (i.e., the specific binding is reduced to background levels by competition with an excess of P2Y12 antagonist, with no competition of binding when a P2Y1 antagonist is pre-incubated with the platelet preparation). […]
A platelet ADP receptor binding assay (ARB) using the tritiated potent agonist ligand [^3H]2-MeS-ADP (Jantzen, H. M. et al. (1999) Thromb. Hemost. 81:111-117) has been adapted to the 96-well microtiter format. […] Total binding is determined in the absence of test compounds. […] The platelet-bound radioactivity on the filtermats is determined in a scintillation counter (Microbeta 1450, Wallac Inc., Gaithersburg, Md.). Specific binding is determined by subtraction of non-specific binding from total binding, and specific binding in the presence of test compounds is expressed as % of specific binding in the absence of test compound dilutions. […]

[2] = tested on: ADP-induced human platelet aggregation (human platelet-rich plasma); test: inhibition of ADP-mediated platelet aggregation in platelet-rich plasma (PRP assay); type: cell-based
Method: Platelet-rich plasma (PRP) is prepared by centrifugation of whole blood at 160×g for 20 minutes at room temperature. […] PPP is prepared by centrifugation of the remaining blood sample (after removal of PRP) for 20 minutes at 800×g. This preparation of PRP can subsequently be used for aggregation assays in either a 96-well plate or standard cuvette aggregometry.
J. Clin. Pathol. […] All steps are performed at room temperature. […] The plates are then agitated for 5 min on a microtiter plate shaker and the 5 minute reading is obtained in the plate reader. […] IC50s were derived by non-linear regression analysis.

T1 sequence (Q9H244 whole entry): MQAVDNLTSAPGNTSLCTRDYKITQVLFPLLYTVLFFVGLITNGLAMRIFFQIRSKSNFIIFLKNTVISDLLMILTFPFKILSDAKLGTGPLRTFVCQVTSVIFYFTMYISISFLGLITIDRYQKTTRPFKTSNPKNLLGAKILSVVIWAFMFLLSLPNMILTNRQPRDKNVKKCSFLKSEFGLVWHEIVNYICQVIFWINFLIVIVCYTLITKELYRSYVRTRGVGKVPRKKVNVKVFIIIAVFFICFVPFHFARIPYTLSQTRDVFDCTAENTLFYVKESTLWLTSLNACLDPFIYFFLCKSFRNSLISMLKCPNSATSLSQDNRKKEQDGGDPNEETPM

IC50 [2]	SMILES	IC50 [1]	IC50 ([2]; Platelet)
10 to 30 µM	CNc1cc2[nH]c(=O)n(-c3ccc(NC(=O)NS(=O)(=O)c4ccc(Cl)s4)cc3)c(=O)c2cc1Cl [Example 3, [4-(6-chloro-7-methylamino-2,4-dioxo-1,4-dihydro-2H-quinazolin-3-yl)-phenyl]-5-chloro-thiophen-2-yl-sulfonylurea]	0.05 to 0.5 µM	
	CNc1cc2[nH]c(=O)n(-c3ccc(NC(=O)NS(=O)(=O)c4ccc(Cl)s4)cc3)c(=O)c2cc1F [Example 2]	< 0.05 µM	< 10 µM
